Data set [1] is described as follows: In vivo pharmacokinetics in mice, IV and oral. Details: species or system male C57BL/6J mice. The procedure: The animals were classified according to weight and divided into the following groups (Table 7):
20% Kolliphor and 50% PBS at a concentration of 1 mg/mL. From this solution, a 0.4 mg/mL dilution was made for IV administration.
In intravenous (IV) administration, after each compound was administered to the mice, the mice were separated into groups of 3 and were euthanized at times 5, 10, 15, 30, 60, 120, 240, 260, 480 and 1440 minutes. For oral administration (V.O), the mice were separated into groups of 3 and were euthanized at times 15, 30, 60, 120, 240, 260, 480 and 1440 minutes. To obtain zero-time assays, mice were used to which no compound was administered.
Whole blood was obtained from each animal (in microtubes with EDTA); these samples were centrifuged at 9000 g at a temperature of 4° C. for a period of 5 minutes, obtaining the plasma which was stored at −80° C.
In addition, organs such as brain, liver, muscle, epididymal fat, heart and kidney were obtained from the animals, which were frozen in liquid nitrogen and stored at −80° C.
Plasma samples and brain, liver, epididymal fat, and muscle (tissue) samples were analyzed. 2× in volume of water (weight/volume) was added to the tissue samples while 4× in volume of water (weight/volume) was added to the muscle mixture, after which they were homogenized using a Bullet Blender equipment (Next Advance, USA).
All samples were analyzed as a single point by LC-MS/MS in accordance with the analytical methodology already standardized and presented in application example 3.
To begin, a calibration curve was run. For this purpose, the controls, the plasma and organ samples were prepared by adding 180 μL of cold acetonitrile to these, then vortexed for 15 seconds and centrifuged at 6100 g for 30 seconds at 4° C. The supernatant which was obtained from this procedure was diluted in 2 volumes of 0.2% formic acid in water and transferred to a vial that will allow it to be injected into LC-MS/MS.
The conditions for the LC-MS/MS analysis were: • HPLC: Eksigent UltraLC 100 • Autosampler: Eksigent UltraLC 100-XL at RT • Mobile phase: A-0.1% formic acid in water; B-0.1% formic acid in acetonitrile. • Column: YMC Triart 1.9 μm; 2.0×50 mm • Injection volume: 2 μL • Gradient: 5% B for 0.25 min→5-95% B for 0.75 min→95% B for 2 min→95-5% B for 0.25 min→5% B for 0.25 min • Flow: 0.6 mL/min • Mass Spectrometer: Applied Biosystems/SCIEX QTRAP 4500 • Interface: TurbolonSpray (ESI) at 600° C. • Software: Analyst.

The test system of data set [2] is Madin-Darby Canine Kidney (MDCK) cells transfected with human P-glycoprotein (hMDR1). Conditions: MDCK-MDR1.
Description: Madin-Darby Canine Kidney (MDCK) cells were used in this assay, which are stably transfected with the gene encoding human P-glycoprotein (hMDR1). These cells were cultured in DMEM medium (Dulbecco's Modified Eagle's Medium) high in glucose and supplemented with 10% fetal bovine serum, 1% 5 mM pyruvate, 1% non-essential amino acids solution X5, 20,000 IU/mL of penicillin G and 20,000 IU/mL of streptomycin, a temperature of 37° C., 90% relative humidity and 5% CO2. These cells were seeded in sterile plates on the fourth day of growth or until reaching 90% confluence.
Ten days before carrying out the transport analysis, cells were seeded in Transwells® inserts (1.12 cm2) at a density of 60,000 cells/cm^2. The monolayers were supplemented every two days with fresh culture medium. […] In parallel, B-A experiments were performed (1.5 mL of donor solution in basolateral compartment and 0.5 mL buffer in apical). The monolayers were incubated while stirring (50 rpm) at a temperature of 37° C. for a period of 2 hours. Additionally, this assay was performed in the presence of the Pgp inhibitor elacridar (5 μM). After the stir time, the inserts were removed, the compartments were sampled and the cells were transferred to HPLC vials by diluting these samples with mobile phase chromatography. These samples were kept at −20° C. until their analysis time. […]
Data set [3] concerns the target T1, recombinant 11β-HSD1 enzyme (Homo sapiens (Human), UniProt P28845). Briefly: 11β-HSD1 oxidase activity (HTRF Cortisol Kit). Type of data set: biochemical. The procedure: Determination of 11β-HSD1 Oxidase Activity
The Cortisol Kit (Cisbio) product was used for that purpose.
For the analysis, the compounds are reconstituted in DMSO in a stock of 10 mM concentration, from which serial dilutions were prepared for the efficiency curve.
The recombinant 11β-HSD1 enzyme dilutions were prepared in 20 mM Tris Buffer 5 mM EDTA pH 6.0 (Tris buffer).
Initially, the enzyme concentration to be used was determined. For this purpose, a plate for HRTF was prepared with Tris buffer with 100 nM cortisol and 200 μM NADP+, including in the wells of the plate for HTRF together with the enzyme in a 4:1 ratio, respectively, and incubated for 2 hours at 37° C. After this time, the reagents of the Cortisol kit, Cortisol d2 and Cortisol cryptate in sample ratio, Cortisol d2 and cortisol cryptate 2:1:1 were added, incubating this new reaction for 1 hour at room temperature. Subsequently, the fluorescence was determined at 665 and 620 nm.
An HRTF plate was again prepared, where the reaction buffer, the recombinant 11β-HSD1 enzyme and the compound were added in each well in a 3:1:1 ratio, respectively. The plate was incubated at 37° C. for 2 hours. After the incubation time, the reagents of the cortisol kit, cortisol d2 and cortisol cryptate, were added as indicated above. They were then incubated at room temperature for 1 hour to finally read the fluorescence at 665 and 620 nm.
(Time-resolved FRET reads energy transfer from a long-lived donor to a nearby acceptor.)

Data set [4] deals with T1, recombinant 11β-HSD1 enzyme. Briefly: 11β-HSD1 reductase activity (HTRF Cortisol Kit). Type of data set: biochemical. Conditions: 266 nM cortisone, 333 μM NADPH, read-out: 11b-HSD1 reductase (HTRF) IC50. The protocol: Determination of 11β-HSD1 Reductase Activity
First, stock solutions of the compounds were prepared in DMSO at a concentration of […], of which serial dilutions were made in order to determine the efficacy curve.
As for the recombinant 11β-HSD1 enzyme (Cayman Chemical, MI, USA; Item No. 10007815), it was prepared in Tris Buffer 20 mM EDTA 5 mM pH 6.0 (Tris buffer) at different dilutions.
Initially, the enzyme concentration to be used in the assays in order to evaluate the biological activity of the compounds was determined. The Cortisol Kit product (Cisbio, MA, USA; Cat no. 62CRTPEG) was used for that purpose.
The protocol consisted of preparing the reaction buffer, adding 266 nM cortisone and 333 μM NADPH in Tris buffer. Then, this reaction buffer is added to the wells of the HTRF (Homogeneous Time Resolved Fluorescence) reaction plate together with the enzyme in a 4:1 ratio respectively, and incubated for 2 hours at 37° C. In the case of the control wells, two wells with Tris buffer were added, without compounds.
After the incubation time, the reagents of the Cortisol kit were added, Cortisol d2 and Cortisol cryptate in sample ratio, Cortisol d2 and cortisol cryptate 2:1:1, in a quantity according to the size of the well as indicated by the supplier (for the negative control of the kit, the cortisol d2 is replaced by the kit's reconstitution buffer). This reaction is incubated for 1 hour at room temperature in order to later read the fluorescence at 665 and 620 nm.
Once the enzyme concentration to be used has been determined, the cortisol kit protocol is continued to determine the efficacy curve for the compounds. As previously done, a plate for HTRF was prepared adding to each well of the reaction buffer, the recombinant 11β-HSD1 enzyme and the compounds to be assayed in a 3:1:1 ratio, respectively. The plate was subsequently incubated at 37° C. for 2 hours.
After the incubation time, the reagents of the cortisol kit, cortisol d2 and cortisol cryptate, are added, and were incubated again for 1 hour at room temperature. Finally, the fluorescence of each well was determined at 665 and 620 nm.

The record followed here is patent US12304894B2, “Derivatives of adamantyl oxadiazoles and pharmaceutically acceptable solvates, hydrates and salts thereof, pharmaceutical composition comprising same, synthesis method, suitable for use as effective and selective inhibitors of the reductase activity of the enzyme 11-beta dehydrogenase type 1 …” (PONTIFICIA UNIVERSIDAD CATOLICA DE CHILE, priority 2019, dated 2025).

T1 sequence (P28845 whole entry): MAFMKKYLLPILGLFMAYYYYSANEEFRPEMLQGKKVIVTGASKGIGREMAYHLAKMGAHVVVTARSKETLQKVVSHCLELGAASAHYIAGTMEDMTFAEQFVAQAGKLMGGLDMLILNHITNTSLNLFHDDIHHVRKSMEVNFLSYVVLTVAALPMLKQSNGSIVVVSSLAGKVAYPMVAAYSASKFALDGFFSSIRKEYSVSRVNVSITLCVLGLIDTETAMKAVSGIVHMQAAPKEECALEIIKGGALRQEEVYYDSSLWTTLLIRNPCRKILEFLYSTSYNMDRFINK

In data set [1] (IV, 2 mg/Kg, plasma), “1-(3-pyridyl)-2-(3-adamantyl-1,2,4-oxadiazol-5-yl)ethane [BD-44]” registered an AUCExtr of 0.672%, an AUCInf of 369 ng·h/mL, an AUCfinal of 368 ng·h/mL and a CL of 90.3 mL/min/kg. For the same substance, in data set [1] (IV, 2 mg/Kg, plasma), the Vz came to 7.95 L/kg and the t1/2 was found to be 1.02 h. In data set [1] (PO, 10 mg/Kg, plasma), this substance came in with an AUCExtr of 1.39%, an AUCInf of 148 ng·h/mL, an AUCfinal of 146 ng·h/mL and a CL of 1120 mL/min/kg. In data set [1] (PO, 10 mg/Kg, plasma), this substance gave an F of 8.00%, a Vz of 102 L/kg, a t1/2 of 1.05 h and a tmax of 0.5 h. The “mean time (of elimination) of the drug” value in data set [1] (administered intravenously, plasma) turned out to be 1.02 h. For the same substance, in data set [1] (administered orally, plasma), the “mean time (of elimination) of the drug” value amounted to 1.05 h. Besides, the “time post administration up to which compound was detected” value in data set [1] (both intravenously and orally, plasma) is on record as “up to 6 hours”. Besides, in data set [1] (oral and intravenous administration), the “detection in tissues (brain, liver, fat, muscle)” value was “not detected in the tissues assayed”. In data set [1] (plasma), the “bioavailability / apparent availability” value is “low apparent availability”. For the same substance, in data set [2], the “Papp compared with high permeability marker minoxidil” value was “higher than those of the high permeability marker minoxidil”. In data set [3] (remaining activity at 100 nM compound), the “11b-HSD1 oxidase (activ rem %) 100 nM” value stood at 107.0%. Further, the “11b-HSD1 oxidase (activ rem %) 100 uM” value in data set [3] (remaining activity at 100 uM compound) is listed as 94.3%. Moreover, the IC50 in data set [4] was 3.9 nM.

A word on the IC50: it is the concentration that inhibits the measured activity by half.
